Values of other authors, collected in patent US5043321A, “Adrenocorticotropin release inhibiting factor” (Center for Innovative Technology, priority 1988, dated 1991).
No end group written: not given here.

What was measured:
[1] = system: hemorrhage induced corticosterone secretion; settings: Hattori et al
[2] = system: rat anterior pituitary gland; settings: Okajima et al

Substance | effect on hemorrhage induced corticosterone secretion in vivo [1] | effect on plasma ACTH ([1]; preliminary study) | most effective concentration for inhibition of ACTH secretion [2] | effect on CRF induced ACTH secretion ([2]; rat anterior pituitary gland in vitro)
alpha-hANP: alpha-hANP (presumably ANF[1-28]) used by Hattori et al (SLRRSSCFGGRMDRIGAQSGLGCNSFRY; ends and bridges not checked; cysteine pairing not given here; UniProt P01160 124-151, looked up) | no effect | inhibition of plasma ACTH that was not dose dependent | – | –
delta sleep inducing peptide [DSIP] | – | – | 10 nM | inhibits CRF induced ACTH secretion
